Among the data in PubChem BioAssay AID1902 (Broad Institute, 2009) are EC50 values, retold here.

The source made the active and inactive calls.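 Rule for the calls: active = EC50 no more than a set limit of log units above the highest dose; inactive = the rest.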

The target in this test is S. pyogenes SKKanGAS, kanamycin survival, BacTiterGlo, 6 h. In words: SKKanGAS survival reduction under kanamycin, dose response, streptokinase promoter inhibitor project, SKKanGAS strain, luminescence, dose confirmation (AID 1902).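 Note: lower survival reflects blocked streptokinase promoter driving kanamycin resistance gene.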

Take `O=C(CSc1nc(Nc2ccccc2)nc(N2CCOCC2)n1)Nc1cc(Cl)ccc1O`: the EC50 was 4130 nM. On to `COc1ccc(C(=O)NC(=S)Nc2ccc(N3CCOCC3)c(Cl)c2)cc1[N+](=O)[O-]`, for which the EC50 was 1970 nM.

Regarding `COC(=O)c1cc(S(=O)(=O)n2nc(C)c(Br)c2C)c(Cl)cc1Cl`, the EC50 is 1010 nM. To `COc1ccc(OCC(=O)NNC(=S)NC(=O)C2CC2)cc1` belongs 4110 nM; to `CC1CCCC(C)N1c1nnc(NC(=O)c2cc(-c3ccc(Br)cc3)on2)s1` (configuration not stated), 2790 nM; to `O=C(Nc1cccc(Cl)c1N1CCCC1)c1cc2ccccc2o1`, 4810 nM. As for `O=C(CC1SC(=Nc2ccccc2)N(CCc2c[nH]c3ccccc23)C1=O)Nc1ccccc1F` (configuration not stated), the figure is 7210 nM.

As to `Cc1cccc(NC2=NC(C)(C)N=C(N)N2)c1`, the EC50 was 109 nM. To `CCOc1ccccc1NC(=O)NCc1ccc2c(c1)OCO2` belongs > 15000 nM (inactive); to `Oc1cccc2ccc(/C=C/c3ccccc3Br)nc12`, 158 nM; to `Cc1ccc2ccc(C(Nc3cccc(C(F)(F)F)c3)c3cccnc3)c(O)c2n1` (configuration not stated), 1120 nM. To `Oc1ccc(/C=N/Nc2nc(-c3ccc(Cl)cc3)cc(C(F)(F)F)n2)cc1` belongs 7890 nM.

On to `Cc1cc(C)c(-c2noc(C(=O)OC(C)(C)C)c2C(=O)OC(C)(C)C)c(C)c1`, for which the EC50 was 3580 nM.

Take `O=C1C(NS(=O)(=O)c2cccs2)=C(N2CCN(c3cccc(C(F)(F)F)c3)CC2)C(=O)c2ccccc21`: the EC50 was 8850 nM. As for `COCCn1c(-c2cc(OC)c(OC)c(OC)c2)nc2oc3cc(OC)ccc3c(=O)c2c1=O`, the figure is > 15000 nM (inactive); as for `Cc1ccnn2c(-c3ccccc3)c3c(=O)n(C)c(=O)n(C)c3c12`, > 15000 nM (inactive); as for `COc1ccc(-c2nc(-c3cccs3)c(-c3cccs3)[nH]2)cc1OC`, 4320 nM. To `CCCCC1CCC(c2nc(-c3ccccn3)no2)CC1` (configuration not stated) belongs 8610 nM; to `O=S(=O)(Nc1ccc(-c2csc(-c3ccccc3)n2)cc1)c1ccc(F)cc1`, 1920 nM; to `CCCCC[n+]1ccn(C2=C([O-])c3ccccc3C(=O)/C2=N\S(=O)(=O)c2ccc(Br)cc2)c1`, 2870 nM.

`CC(C)C(NC(=O)C(c1ccccc1)c1ccccc1)c1nc2ccccc2[nH]1` (configuration not stated): the EC50 was 2960 nM. To `Cc1cc2nc(N3C(=O)CNC3=S)sc2cc1C` belongs 2210 nM; to `CCOC(=O)C(=NC(C)(C)C)NNc1cc(Cl)ccc1Cl`, 2900 nM; to `O=C(COc1ccc(Cl)cc1Cl)Nc1ccc(C(=O)Nc2ccccc2C(=O)O)cc1`, 2300 nM. Turning to `Cc1ccc2c(c1)=C(c1sc(N(C)c3ccc(O)cc3)nc1O)C(=O)N=2`, the concentration giving a half-maximal response (EC50) was 6720 nM.

`COc1ccc(-c2csc(NC(=O)c3ccc(C(C)(C)C)cc3)c2C(=O)O)cc1`: the EC50 was 1210 nM. As to `CN1CCN(C(c2ccc(C(F)(F)F)cc2)c2cc(Cl)c3cccnc3c2O)CC1` (configuration not stated), the EC50 is 682 nM. As for `O=C(NC(=S)N(Cc1ccccc1)Cc1ccccc1)c1ccccc1F`, the figure is 752 nM; as for `CCCc1nc2ccccc2c(=O)n1/N=C/c1c(C)[nH]n(-c2ccc(C)cc2)c1=O`, 1230 nM; as for `CCc1c(O)nc(SCC(=O)Nc2nc3ccccc3s2)n(C2CCCCC2)c1=O`, 8890 nM. As for `Cc1cccc(Nc2nc(N)nc(CN3CCN(c4ccc(F)cc4)CC3)n2)c1`, the figure is 15600 nM. To `Cc1[nH]n(-c2ccccc2)c(=O)c1N=Nc1c(O)cc(S(=O)(=O)N(C)C)c2ccccc12` belongs 1100 nM; to `COc1ccc(-n2nc3cc(C)c(NC(=O)C(C)C)cc3n2)cc1`, > 15000 nM (inactive).

Turning to `C=C(CC1([C@@H](NP(=O)(c2ccccc2)c2ccccc2)[C@H]2C[C@@H]2CCCC)CC1)c1ccccc1`, the EC50 is 3640 nM.

Regarding `CC(NS(=O)(=O)OCC(Cl)(Cl)Cl)c1ccc(C(C)(C)C)cc1` (configuration not stated), the EC50 is 4640 nM. As for `Clc1ccc(SCc2cc(Cl)nc(-c3ccccc3)n2)cc1`, the figure is > 15000 nM (inactive); as for `C/C(=N\NC(=S)NCc1ccccc1)c1cccc(Br)c1`, 5440 nM.

`CCCn1cc(CN2CCC(n3nccc3NC(=O)c3ccccc3)CC2)c(C)n1`: the EC50 was > 15000 nM (inactive). As to `CN(C)Cc1nc2ccccc2c(=O)n1Cc1nc(-c2cc3ccccc3o2)cs1`, the EC50 was 1820 nM. To `Oc1c(Cl)cc(Cl)cc1C(C#Cc1ccccc1)N1CCOCC1` (configuration not stated) belongs 12200 nM; to `O=C(Nc1cccc(NC(=O)c2ccccc2Cl)c1)c1ccc([N+](=O)[O-])o1`, 4810 nM; to `CC(C)=CCC12Oc3cc(O)ccc3C1(O)Oc1cc3c(c(O)c1C2=O)C=CC(C)(C)O3` (configuration not stated), 2400 nM. Consider `C/C(=N\NC(=O)c1ccc(Cl)cc1)c1ccccn1`, for which the 50% effective concentration (EC50) is 1480 nM. As for `N#C/C(=C(/O)c1ccc([N+](=O)[O-])o1)c1nc2ccccc2[nH]1`, the figure is 2050 nM. As for `CCOC(=O)c1nc(Nc2ccc(Nc3ccccc3)cc2)c2ccccc2n1`, the figure is 9840 nM. For the compound `Cc1nc2ccccc2n1/N=C/c1ccc([N+](=O)[O-])s1`, the EC50 was 2390 nM. As for `O=C(Nc1cccc(F)c1)N1CCCCCC1`, the figure is > 15000 nM (inactive); as for `CCOC(=O)c1sc(Nc2nc3ccc(OC)cc3s2)cc1C`, 2950 nM; as for `c1ccc(C(NCCNC(c2ccccc2)c2ccccc2)c2ccccc2)cc1`, 1050 nM. For `Cc1[nH]n2c(=O)cc(-c3ccc([N+](=O)[O-])cc3)nc2c1-c1ccccc1`, the EC50 is 319 nM. In the case of `O=[N+]([O-])c1ccc(O)c(/C=N/Nc2ncnc3c2cnn3-c2ccccc2)c1`, the EC50 was 742 nM. In the case of `CCCn1c(C2CCCN2c2nc(-c3cccc(Br)c3)cs2)nc2cc(Cl)c(Cl)cc21` (configuration not stated), the EC50 was 3680 nM.

In the case of `CCCCCCCCCCOC(=O)Cn1c(COc2ccccc2)[n+](C)c2ccccc21`, the EC50 is 7960 nM. On to `CCCc1sc(N/N=C/c2ccccn2)nc1-c1ccc(Br)cc1`, for which the EC50 is 241 nM. To `CO[C@H]1C=CO[C@@]2(C)Oc3c(C)c(O)c4c(O)c(c5c(nc6cc(C)ccn65)c4c3C2=O)NC(=O)C(C)=CC=C[C@H](C)[C@H](O)[C@@H](C)[C@@H](O)[C@@H](C)[C@H](OC(C)=O)[C@@H]1C` belongs under 60 nM.

`Cn1c2ccccc2c(=O)c2cc(C#Cc3ccc(N)cc3)ccc21`: the EC50 is 1350 nM. With `O=C(CSc1nnc(NC(=O)c2ccccc2)s1)NCC1CCCO1` (configuration not stated), the EC50 was > 15000 nM (inactive). To `Cn1c(SCC(=O)NC2(C#N)CCCCC2)nnc1-c1cccnc1` belongs > 15000 nM (inactive). As for `COc1ccc(-c2noc(-c3ccccc3-c3ccccc3)n2)cc1`, the figure is 8180 nM; as for `O=C1/C(=N\S(=O)(=O)c2cccs2)C([n+]2cccc(Cc3ccccc3)c2)=C([O-])c2ccccc21`, 1680 nM. As for `Cc1ccc(S(=O)(=O)Nc2cccc3ncccc23)s1`, the figure is 2870 nM.

Regarding `O=C(NNc1ccccc1Cl)C(O)(c1cccc(C(F)(F)F)c1)c1cccc(C(F)(F)F)c1`, the EC50 is 2610 nM. As for `Cc1ccc(C2C(/C=C3/SC(=S)NC3=O)=C(c3cccs3)Oc3ccccc32)cc1` (configuration not stated), the figure is 643 nM.

As for `C=C(C)COc1ccc(-c2[nH]ncc2Oc2ccc(OC)cc2)c(O)c1`, the EC50 is 4050 nM. As for `Cc1cc(O)c(NC(=S)NC(=O)c2ccc(-c3ccc(Cl)cc3)o2)cc1C`, the EC50 is 760 nM. As for `CC(=O)OCC1=C(C(=O)O)N2C(=O)C(NC(=O)C(C)Cn3nc(C)c(Cl)c3C)C2SC1` (configuration not stated), the figure is 2950 nM; as for `COC(=O)c1c(NC(=O)c2ccccc2)sc(C(=O)c2ccccc2)c1C`, 5400 nM; as for `COc1ccc(Cl)cc1C(=O)NNC(=S)NC(=O)c1cc(-c2ccc(Cl)cc2)nc2ccccc12`, 254 nM. For the compound `Cc1ccc2sc(NNC(=O)c3cc(-c4cccs4)nc4ccccc34)nc2c1C`, the EC50 was 859 nM. To `Cc1ccc(C(=O)N2CCOCC2)cc1S(=O)(=O)N1CCOCC1` belongs > 15000 nM (inactive); to `Cc1ccsc1C(=O)N(c1nc2ccccc2s1)c1c(C)cccc1C`, 4000 nM; to `COc1ccccc1-c1nnc(Nc2nc3c(OC)cccc3s2)o1`, 803 nM.

On to `CCc1nc2c3cnn(-c4cc(Cl)ccc4C)c3ncn2n1`, for which the EC50 was 12800 nM. As for `CCOC(=O)c1ccc(NC(=O)c2nc[nH]c2C(=O)NCCCCCNC(=O)OC(C)(C)C)cc1`, the figure is 2830 nM; as for `CC/C(=C/c1ccccc1)c1cccc2[nH]c3c(OC)cccc3c12`, 2490 nM.

For the compound `O=C1NC(=Nc2ccc(Cl)cc2)SC1Cc1cc(Cl)ccc1Cl` (configuration not stated), the EC50 was 2970 nM.

Consider `CCCCN(C)S(=O)(=O)c1ccc(C(=O)Nc2nnc(-c3cccs3)o2)cc1`, for which the EC50 was 941 nM. As for `O=C(NC(=S)N1CCN(c2c(Cl)cccc2[N+](=O)[O-])CC1)c1cccs1`, the figure is 5150 nM.

Take `O=C(Nc1nnc(-c2ccco2)o1)c1ccc(Cl)s1`: the EC50 is 1710 nM. `c1ccc(-c2oc3ncnc(NCCCn4ccnc4)c3c2-c2ccccc2)cc1`: the EC50 is 8920 nM.

Consider `COc1ccc2oc(=O)c(-c3csc(Nc4ccc(O)cc4)n3)cc2c1`, for which the EC50 was 2160 nM. To `O=C(NCc1ccco1)c1cc2ccc(O)cc2oc1=O` belongs 5850 nM; to `CCOC(=O)c1nnn(-c2nonc2-n2cccc2)c1CN1CCC(C)CC1`, 8020 nM; to `Cc1cc(C)n(-c2nc(Nc3ccccc3C(F)(F)F)nc(-n3nc(C)cc3C)n2)n1`, 2670 nM. As for `CCCCCCCCCCCCN1[C@@H](CC(=O)O)c2cc(C(F)(F)F)ccc2S1(=O)=O`, the figure is 2440 nM; as for `CC(C)Oc1ccc(C(=O)Nc2nnc(C3=COCCO3)o2)cc1`, 794 nM. For `c1ccc(-c2nc(N3CCCCCC3)nc(-n3ccnc3)n2)cc1`, the EC50 is 2410 nM. Take `CC(C)(C)c1cc(C(=O)N/N=C/c2ccc([N+](=O)[O-])s2)n[nH]1`: the EC50 is 7400 nM. To `COc1ccc2cc(C(=O)C3CCCN(Cc4cccc(C)n4)C3)ccc2c1` (configuration not stated) belongs 1840 nM; to `C=C1SC(=Nc2ccccc2Cl)N(C(=O)c2sc3ccccc3c2Cl)C12CCCCC2`, 3480 nM; to `COc1ccc2oc(C(=O)Nc3nc(-c4ccccn4)cs3)c(C)c2c1`, 1190 nM. To `COc1ccc(/C=C/C(=O)NC(=S)NNC(=O)[C@H]2C[C@@H]2c2ccccc2)cc1OC` belongs 362 nM.

As usually defined, the EC50 is the midpoint of the concentration-response curve.
